Data taken from PMC8968063, “Key features of inhibitor binding to the human mitochondrial pyruvate carrier hetero-dimer” (Molecular Metabolism, 2022).
Where two headings read alike, the source gives them in different places.

What was measured:
[1] = biological target: T1, recombinant human MPC1L/MPC2 (Homo sapiens, UniProt O95563+P0DKB6); assay: Electrospray mass spectrometry of MPC1L/MPC2 after reaction with inhibitors or sulfhydryl modifiers
T1 construct: MPC1L (2–136); MPC2 (2–137); eight-histidine tag (C, cleaved yes); TEV protease cleavage site (part stays on MPC2 after digestion) (C, cleaved yes); made in house; host or cells: Saccharomyces cerevisiae SHY15 (mpc triple deletion strain), purified from mitochondria
T1 sequence (P0DKB6 2-136 limits assumed): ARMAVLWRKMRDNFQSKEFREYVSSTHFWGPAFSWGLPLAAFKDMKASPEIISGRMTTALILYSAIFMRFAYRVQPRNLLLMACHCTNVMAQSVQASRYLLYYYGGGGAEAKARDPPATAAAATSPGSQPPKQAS
T1 sequence (O95563 2-127 limits assumed): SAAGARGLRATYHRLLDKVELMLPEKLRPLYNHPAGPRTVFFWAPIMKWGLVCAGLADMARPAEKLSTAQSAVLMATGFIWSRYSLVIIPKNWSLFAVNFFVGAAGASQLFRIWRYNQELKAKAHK
Description: Different MPC inhibitors (Table1) or sulfhydryl reagents were first incubated with MPC1L/MPC2 in a folded state, then the protein molecular masses were measured by electrospray mass spectrometry. The MPC subunits (10 μg) were resolved by reverse-phase HPLC on a PLRP-S column (1.0 mm i.d. X 75 mm; VARIAN) using a gradient of 2-propanol in a solvent system compatible with the recovery of membrane proteins (Carroll et al., 2009). The eluate (50 μL/min) was introduced into a QTRAP4000 (SCIEX) mass spectrometer operating in positive ion single MS mode. The instrument was scanned from 700 m/z to 2300 m/z after calibration with ions from a mixture of 1.0 μM of myoglobin and 1.5 μM trypsinogen. Molecular masses were obtained by reconstruction of the spectra of multiply charged ions using PeakView (SCIEX).

human MPC1L/MPC2 complex [2] = biological target: T2, human MPC1L/MPC2 complex (Homo sapiens, UniProt O95563+P0DKB6); assay: CPM thermostability shift assay, purified MPC1L/MPC2; format: binding; conditions: for ΔTm at 100 µM: read-out: ∆Tm, CPM assay (thermal shift compared to no-ligand control); for Tm, CPM assay: unliganded 51.3 ± 0.2, mean ± s.d., 3 biological repeats
T2 construct: eight-histidine tag (C, cleaved yes); TEV protease cleavage site (part stays on MPC2 after digestion) (C, cleaved yes); made in house; host or cells: Saccharomyces cerevisiae SHY15 (mpc triple deletion strain), purified from mitochondria
T2 sequence (P0DKB6 2-136): T1 sequence (P0DKB6 2-136 limits assumed)
T2 sequence (O95563 2-127): T1 sequence (O95563 2-127 limits assumed)
Description: The assessment of ligand binding was performed via shifts in protein thermostability upon binding using thermal denaturation on a rotary quantitative PCR (qPCR) instrument (Qiagen Rotor-Gene Q 2plex HRM, Venlo, Netherlands), as previously described. In this method, cysteine residues, buried within the protein structure, become solvent-exposed during denaturation in a temperature ramp and then react with 7-diethylamino-3-(4-maleimidophenyl)-4-methylcoumarin (CPM) to form fluorescent-adducts. Briefly, a CPM working solution was prepared by diluting the CPM stock (5 mg/mL in dimethyl sulfoxide) 50-fold into assay buffer (20 mM Tris–HCl, pH 7.4, 150 mM NaCl, 0.1% (w/v) LMNG, 0.1 mg/mL TOCL) and incubated for 10 min at room temperature. In each analysis, performed in duplicates or triplicates, 3 μg of purified MPC was diluted into 45 μL of assay buffer containing the desired concentration of the inhibitor then incubated for 10 min on ice. Next, 5 μL of the CPM working solution were added. Samples were incubated on ice for an additional 10 min then subjected to a temperature ramp of 5.6 °C/min. The fluorescence increase was monitored with the HRM channel of the instrument (excitation at 440–480 nm, emission at 505–515 nm). Unfolding profiles were analysed with the Rotor-Gene Q software 2.3, and the peaks of their derivatives were used to determine the apparent melting temperature.

human MPC1L/MPC2 complex [3] = biological target: T2, human MPC1L/MPC2 complex; assay: nano-DSF thermostability shift assay, purified MPC1L/MPC2; format: binding; conditions: inhibitor 100 μM; for Tm, nano-DSF: unliganded 51.9 ± 0.1, mean ± s.d., 2 biological repeats
Description: Ligand binding was also assessed using dye-free nano differential scanning fluorimetry (nano-DSF) to monitor fluorescence changes due to altered environments of tryptophan and tyrosine residues during unfolding. Protein samples in buffer containing 20 mM Tris–HCl pH 7.4, 150 mM NaCl, 0.1% (w/v) LMNG, 0.1 mg/mL TOCL, in the presence or absence of the indicated concentrations of small molecule inhibitors, were loaded into capillary tubes, and a temperature ramp of 5 °C/min was applied. The intrinsic fluorescence was measured using the NanoTemper Prometheus NT.48 (NanoTemper, München, Germany).

[4] = MPC1L/MPC2 after reaction with compound
[5] = number of covalent adducts from mass increase

Compound | ΔTm at 100 µM (human MPC1L/MPC2 complex [2]; inhibitor 100 μM) [°C] | Tm, CPM assay (human MPC1L/MPC2 complex [2]; inhibitor 100 μM) [°C] | also measured
CS(=O)(=O)SCCN [MTSEA] |  |  | Mass difference (observed vs calculated), MPC1L (2–136) [1, 4]: +149.3 Da; Mass difference (observed vs calculated), MPC1L (5–136) [1, 4]: +149.2 Da; Covalent modification of MPC protomers (molecular mass change) ([1]; folded MPC1L/MPC2 incubated with compound, ESI-MS): modified covalently; Modifications, MPC1L (2–136) [1, 5]: 2 x MTSEA; Modifications, MPC1L (5–136) [1, 5]: 2 x MTSEA; Modifications, MPC2 (2–137) [1, 5]: 1 x MTSEA
N#C/C(=C/c1ccc(-c2ccc(Cl)cc2)o1)C(=O)O [Compound 5] | 9 ± 1.6 | 60.3 ± 1.4 | 
CCc1ccc(CCOc2ccc(CC3SC(=O)NC3=O)cc2)nc1 (stereo not shown) [Pioglitazone, pioglitazone] | 5.1 ± 0.9 | 56.4 ± 0.7 | ∆Tm, nano-DSF (human MPC1L/MPC2 complex [3]): 1.1 ± 0.3 °C; Tm, nano-DSF (human MPC1L/MPC2 complex [3]): 53.0 ± 0.2 °C
O=C1NC(=O)C(=Cc2ccc(-c3ccccc3[N+](=O)[O-])o2)C(=O)N1 [Compound 11] |  | 57.7 ± 2.1 | ΔTm at 100 µM (human MPC1L/MPC2 complex [2]): 6.4 ± 2.3 °C
C=CCN1C(=O)NC(=O)/C(=C/c2ccc(-c3ccccc3[N+](=O)[O-])o2)C1=O [Compound 13] | 7.4 ± 1.9 | 58.7 ± 1.7 | 
N#C/C(=C/c1ccc(-c2ccc(Br)cc2)o1)C(=O)O [Compound 3] | 8.4 ± 1.3 | 59.7 ± 1.1 | 
N#C/C(=C/c1ccc(-c2ccc(F)cc2)o1)C(=O)O [Compound 4] | 9.1 ± 1.5 | 60.4 ± 1.3 | 
N#C/C(=C/c1ccc(-c2ccccc2Cl)o1)C(=O)O [Compound 8] | 11 ± 1.9 | 62.3 ± 1.7 | 
CCc1ccc(C(=O)COc2ccc(CC3SC(=O)NC3=O)cc2)nc1 (stereo not shown) [Mitoglitazone, mitoglitazone] | 5.4 ± 0.8 | 56.7 ± 0.6 | ∆Tm, nano-DSF (human MPC1L/MPC2 complex [3]): 1.9 ± 0.5 °C; Tm, nano-DSF (human MPC1L/MPC2 complex [3]): 53.8 ± 0.4 °C
O=C(O)C(=Cc1ccc(-c2ccccc2[N+](=O)[O-])o1)C(=O)O [Compound 10] | -0.1 ± 1.1 | 51.2 ± 0.9 | ∆Tm, CPM assay (thermal shift compared to no-ligand control) (human MPC1L/MPC2 complex [2]; inhibitor 100 μM): No thermal shift
COc1ccc(/C=C(/C#N)C(=O)O)cc1 [Compound 1] | 9.1 ± 1.2 | 60.4 ± 1.0 | 
